# Where two headings read alike, the source gives them in different places. Marks after values point to notes of the source that are not given here.
# Columns and labels:
# Format in all cases: in vivo
# [1] = system: Erysiphe graminis f. sp. tritici; experiment: Test A: wheat powdery mildew, preventive spray on wheat seedlings, disease rating
# Procedure, shortened: (§1)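 Preventive foliar spray to run-off on wheat seedlings, followed by disease rating. Test rate 200 ppm (equal to 500 g/ha), with some entries at 40 ppm or 50 ppm. Suspensions made in acetone/purified water 50/50 containing 250 ppm Trem 014.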
# [2] = system: Puccinia recondita f. sp. tritici; experiment: Test B: wheat leaf rust, preventive spray on wheat seedlings, disease rating
# Procedure, shortened: as §1
# Septoria nodorum = experiment: Test C: wheat glume blotch, preventive spray on wheat seedlings, disease rating
# Procedure, shortened: as §1
# Septoria tritici = experiment: Test D: wheat leaf blotch, preventive spray on wheat seedlings, disease rating
# Procedure, shortened: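 Preventive test: one day after run-off spraying (200 ppm, equal to 500 g/ha, unless marked 40 or 50 ppm; acetone/water plus 250 ppm Trem 014), seedlings received S. tritici spore inoculum. Disease scored after 48 h at 24 °C in saturated air and 19 further days at 20 °C.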
# Fusarium graminearum = conditions: wheat head scab
# Botrytis cinerea = experiment: Test F: tomato Botrytis, preventive spray on tomato seedlings, disease rating
# Procedure, shortened: (§2)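 Disease ratings follow a preventive run-off spray of tomato seedlings. Compounds were first dissolved in acetone (3% of volume), then suspended in 50/50 acetone/water containing 250 ppm Trem 014. Test level 200 ppm (equivalent to 500 g/ha) except where marked * for 40 ppm or ** for 50 ppm.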
# Alternaria solani = experiment: Test H: tomato early blight, preventive spray on tomato seedlings, disease rating
# Procedure, shortened: as §2
SMILES,"Percentage Disease Control, Test A ([1]; 40 ppm (*))","Percentage Disease Control, Test B ([2]; 40 ppm (*))","Percentage Disease Control, Test C (Septoria nodorum; 40 ppm (*))","Percentage Disease Control, Test D (Septoria tritici; 40 ppm (*))","Percentage Disease Control, Test E (Fusarium graminearum; 40 ppm (*))","Percentage Disease Control, Test F (Botrytis cinerea; 40 ppm (*))","Percentage Disease Control, Test H (Alternaria solani; 40 ppm (*))","Percentage Disease Control, Test A ([1]; 200 ppm)","Percentage Disease Control, Test B ([2]; 200 ppm)","Percentage Disease Control, Test C (Septoria nodorum; 200 ppm)","Percentage Disease Control, Test D (Septoria tritici; 200 ppm)","Percentage Disease Control, Test E (Fusarium graminearum; 200 ppm)","Percentage Disease Control, Test F (Botrytis cinerea; 200 ppm)","Percentage Disease Control, Test H (Alternaria solani; 200 ppm)"
COC(=O)NOc1cc(-c2cccc(Cl)c2)ccc1Cl [Cmpd 19],99* %,99* %,97* %,98* %,99* %,0* %,63* %,,,,,,,
COC(=O)NCc1cc(-c2ccn(S(=O)(=O)N(C)C)n2)ccc1Cl [Cmpd 35],,,,,,,,76%,76%,0%,100%,0%,0%,0%
COC(=O)NCc1cc(-c2ccn(CCCC(c3ccc(F)cc3)c3ccc(F)cc3)n2)ccc1Cl [Cmpd 36],93* %,99* %,99* %,97* %,,,,,,,,26%,0%,78%
COC(=O)NCc1cc(-c2ccn(Cc3ccccc3Cl)n2)ccc1Cl [Cmpd 37],99* %,100* %,100* %,100* %,99* %,,,,,,,,0%,0%
C#CCCCn1nc(-c2ccc(Cl)c(CNC(=O)OC)c2)cc1C [Cmpd 39],99* %,100* %,99* %,100* %,91* %,,,,,,,,0%,0%
COC(=O)NCc1cc(-c2cc(C)n(CCC[Si](C)(C)C)n2)ccc1Cl [Cmpd 40],99* %,100* %,99* %,100* %,13* %,0* %,50* %,,,,,,,
COC(=O)NCc1cc(-c2ccn(CCCC(C)C)n2)ccc1Cl [Cmpd 41],,100* %,,98* %,99* %,,,99%,,100%,,,0%,0%
COC(=O)NCc1cc(-c2ccn(CCCc3ccccc3)n2)ccc1Cl [Cmpd 42],98* %,100* %,100* %,100* %,100* %,,,,,,,,0%,0%
COC(=O)NCc1cc(-c2ccn(CCCF)n2)ccc1Cl [Cmpd 43],,,,,,,,91%,99%,95%,93%,94%,0%,0%
COC(=O)NCc1cc(-c2cc(C(F)(F)F)n(CCC[Si](C)(C)C)n2)ccc1Cl [Cmpd 45],99* %,100* %,,99* %,,,,,,100%,,26%,0%,0%
CCCCn1ccc(-c2ccc(Cl)c(CNC(=O)OC)c2)n1 [Cmpd 46],94* %,99* %,,91* %,94* %,,,,,99%,,,0%,0%
COC(=O)NCc1cc(-c2nn(CCC[Si](C)(C)C)cc2Cl)ccc1Cl [Cmpd 47],98* %,100* %,100* %,99* %,,,,,,,,94%,0%,66%
COC(=O)NCc1cc(-c2ccn(-c3ccc(C)cn3)n2)ccc1Cl [Cmpd 48],65* %,100* %,99* %,99* %,94* %,0* %,99* %,,,,,,,
COC(=O)NCc1cc(-c2ccn(-c3cccc(C)n3)n2)ccc1Cl [Cmpd 49],,100* %,,100* %,99* %,,99* %,79%,,99%,,,0%,
COC(=O)NCc1cc(C(C)=NOC[Si](C)(C)C)ccc1Cl [Compound 6],99* %,100* %,96* %,100* %,68* %,,,,,,,,,
CC[Si](C)(C)CON=C(C)c1ccc(Cl)c(CNC(=O)OC)c1 [Compound 7],100* %,100* %,99* %,100* %,0* %,,,,,,,,,

# Reference: US9198433B2, “Substituted benzene fungicides” (E I DU PONT DE NEMOURS AND COMPANY, priority 2007, dated 2015)
